Data published in PubChem BioAssay (NCI).
“And” between values parts separate entries of the source, which are not always exact repeats. Identical values can stand only once.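 Five compound concentrations were applied to cells in 96-well plates for 48 hours; endpoints were derived by simple linear interpolation of the resulting dose-response curve. The concentration for 50% growth inhibition is given as GI50. TGI denotes the concentration required for complete inhibition of growth.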 Where a SMILES comes first, the peptide text is derived from it. [ ]: non-standard residue; d: D form. 2Nal = N[CH](Cc1ccc2ccccc2c1)C(=O)O

What was measured:
Experiment in all cases: inhibition of tumour cell growth, NCI panel, 48 h
[1] = tested on: CAKI-1 renal
[2] = tested on: DMS 114 small cell lung
[3] = tested on: DMS 273 small cell lung
[4] = tested on: HCC-2998 colon
[5] = tested on: MALME-3M melanoma
[6] = tested on: SK-MEL-2 melanoma
[7] = tested on: SNB-78 CNS
[8] = tested on: SR leukemia
[9] = tested on: HCT-15 colon
[10] = tested on: M19-MEL melanoma
[11] = tested on: MCF7 breast
[12] = tested on: PC-3 prostate

Oc1cccc(C2SCc3nc4ccccc4n32)c1 (stereo not given)
TGI [1]: > 100 µM
TGI [2]: > 100 µM
TGI [3]: > 100 µM
TGI [4]: > 100 µM
TGI [5]: > 100 µM
TGI [6]: > 100 µM
TGI [7]: > 100 µM
TGI [8]: > 100 µM

CNC(=O)OCc1nc(S(C)=O)n(C)c1COC(=O)NC (stereo not given)
TGI [1]: > 93.8 µM
TGI [2]: > 56.2 µM
TGI [3]: > 100 µM
TGI [4]: > 100 µM
TGI [9]: > 100 µM
TGI [10]: > 63.2 µM
TGI [5]: > 100 µM
TGI [11]: > 100 µM
TGI [6]: > 100 µM
TGI [7]: > 92.1 µM
TGI [8]: > 100 µM

C=C(CO)CC(O)c1ccccc1 (stereo not given)
TGI [2]: > 100 µM
TGI [3]: > 100 µM
TGI [4]: > 100 µM
TGI [9]: > 100 µM
TGI [10]: > 100 µM
TGI [6]: > 100 µM
TGI [7]: > 100 µM

CSc1s[s+]c(SC)c1[O-]
TGI [1]: 53.6 µM
TGI [2]: 34.6 µM
TGI [3]: > 100 µM
TGI [4]: > 100 µM
TGI [9]: > 100 µM
TGI [10]: 29.5 µM
TGI [5]: 40.6 µM
TGI [6]: > 100 µM
TGI [7]: > 100 µM
TGI [8]: 37 µM

CC(NC(=O)C(N)Cc1ccccc1)C(=O)NC(Cc1ccc(O)cc1)C(=O)NC(Cc1c[nH]c2ccccc12)C(=O)NC(CCCCN)C(=O)NC(C(=O)NC(C)C(=O)NC(Cc1ccc2ccccc2c1)C(N)=O)C(C)C (stereo not given) (H-FAYWKVA[2Nal]-NH2; configuration not given here)
TGI [1]: > 12.5 µM and 39.1 µM
TGI [2]: 92.6 µM
TGI [3]: 54.1 µM
GI50 [4]: 29.7 µM
TGI [4]: > 100 µM
GI50 [9]: 22.1 µM
TGI [9]: > 12.5 µM and 61.8 µM
TGI [10]: 74 µM
TGI [5]: > 12.5 µM
TGI [11]: > 12.5 µM
TGI [12]: > 12.5 µM
GI50 [6]: 25.1 µM
TGI [6]: > 12.5 µM and 52.1 µM
TGI [7]: > 100 µM

Cc1ccccc1NC(=O)C(=O)Cc1nc2ccccc2s1
TGI [1]: > 100 µM
TGI [2]: > 100 µM
TGI [3]: > 100 µM
TGI [4]: > 100 µM
TGI [9]: > 100 µM
TGI [10]: > 100 µM
TGI [5]: > 100 µM
TGI [6]: > 100 µM
TGI [7]: > 100 µM
TGI [8]: > 100 µM

CCCCCN(CCCCC)C(=O)[C@@H](CCC(=O)OCc1ccccc1)NC(=O)c1cc2ccccc2[nH]1
TGI [1]: > 100 µM
TGI [2]: > 100 µM
TGI [3]: > 100 µM
TGI [4]: > 100 µM
TGI [9]: > 100 µM
TGI [5]: > 100 µM
TGI [6]: > 100 µM
TGI [7]: > 100 µM

CN(C)CC1(C)CC/C(=C\c2ccc3c(c2)OCO3)C1=O (stereo not given)
TGI [1]: > 100 µM
TGI [2]: > 100 µM
TGI [3]: > 100 µM
TGI [4]: > 100 µM
TGI [9]: > 100 µM
TGI [10]: > 100 µM
TGI [5]: > 100 µM
TGI [6]: > 100 µM
TGI [7]: > 100 µM
TGI [8]: > 100 µM

N/C(=N\C(=S)N1CCCCC1)N1CCCCC1
TGI [1]: > 100 µM
TGI [2]: > 100 µM
TGI [3]: > 100 µM
TGI [4]: > 100 µM
TGI [9]: > 100 µM
TGI [10]: > 100 µM
TGI [5]: > 100 µM
TGI [6]: > 100 µM
TGI [7]: > 100 µM
TGI [8]: > 100 µM

C=C1CC2(OC1=O)c1ccccc1CCc1ccccc12
TGI [1]: 3.82 µM
TGI [2]: 3.42 µM
TGI [3]: 11.3 µM
TGI [4]: 6.51 µM
TGI [9]: 3.6 µM
TGI [10]: 3.36 µM
TGI [5]: 4.25 µM
TGI [11]: 16.2 µM
TGI [12]: 27.4 µM
TGI [6]: 12.8 µM
TGI [7]: 4.43 µM
TGI [8]: 2.3 µM

Cc1ccc(NC(=O)SCCC(=O)O)cc1NC(=O)SCCC(=O)O
TGI [1]: > 100 µM
TGI [2]: > 100 µM
TGI [3]: > 10 µM
TGI [4]: > 100 µM
TGI [9]: > 100 µM
TGI [6]: > 100 µM
TGI [7]: > 100 µM
TGI [8]: > 100 µM

O=C1OC(=O)C2C3CCC(O3)C12 (stereo not given)
TGI [1]: > 100 µM
TGI [2]: > 100 µM
TGI [3]: > 100 µM
TGI [4]: > 100 µM
TGI [10]: > 100 µM
TGI [5]: > 100 µM
TGI [6]: > 100 µM
TGI [7]: > 100 µM
TGI [8]: > 100 µM

CN/N=C(\C)CC(=O)Nc1cccc(Cl)c1C
TGI [1]: > 100 µM
TGI [2]: > 100 µM
TGI [3]: > 100 µM
TGI [4]: > 100 µM
TGI [9]: > 100 µM
TGI [10]: > 100 µM
TGI [5]: > 100 µM
TGI [6]: > 100 µM
TGI [7]: > 100 µM
TGI [8]: 53.5 µM

COC(=O)C(C(=O)C(=O)Nc1ccccc1OC)c1csc(-n2nc(-c3ccccc3)cc2-c2ccccc2)n1 (stereo not given)
TGI [1]: > 100 µM
TGI [2]: > 100 µM
TGI [3]: > 100 µM
TGI [4]: > 100 µM
TGI [9]: > 100 µM
TGI [10]: > 100 µM
TGI [5]: > 100 µM
TGI [7]: > 100 µM
TGI [8]: > 100 µM

COC1OC(C)C(OC(=O)C(C)(C)C)C(C)(O)C1O (stereo not given)
TGI [1]: > 100 µM
TGI [3]: > 100 µM
TGI [4]: > 100 µM
TGI [9]: > 100 µM
TGI [10]: > 100 µM
TGI [5]: > 100 µM
TGI [7]: > 100 µM
TGI [8]: > 100 µM

CC1CC2C3CC(F)C4=CC(=O)C=CC4(C)C3(F)C(O)CC2(C)C1(O)C(=O)CO (stereo not given)
TGI [1]: > 100 µM
TGI [2]: > 100 µM
TGI [3]: > 100 µM
TGI [4]: > 100 µM
TGI [9]: > 100 µM
TGI [10]: > 100 µM
TGI [5]: > 100 µM
TGI [6]: > 100 µM
TGI [7]: > 100 µM
TGI [8]: > 100 µM

COc1ccc(-c2c(N)[n+]([O-])c3cc(C)c(C)cc3[n+]2[O-])cc1OC
TGI [1]: > 100 µM
TGI [2]: 67.8 µM
TGI [3]: > 100 µM
TGI [4]: > 100 µM
TGI [9]: > 100 µM
TGI [10]: > 100 µM
TGI [5]: > 100 µM
TGI [6]: > 100 µM
TGI [7]: > 100 µM

O=C1C=C(Br)C(=O)C(Br)=C1
TGI [1]: > 100 µM
TGI [2]: > 100 µM
TGI [3]: > 100 µM
TGI [4]: > 100 µM
TGI [9]: > 100 µM
TGI [10]: > 89.6 µM
TGI [5]: > 100 µM
TGI [6]: > 100 µM
TGI [7]: > 100 µM
TGI [8]: > 80.6 µM

O=C(O)C1Cc2nc[nH]c2CN1 (stereo not given)
TGI [1]: > 100 µM
TGI [2]: > 100 µM
TGI [3]: > 100 µM
TGI [4]: > 100 µM
TGI [9]: > 100 µM
TGI [10]: > 100 µM
TGI [5]: > 100 µM
TGI [6]: > 100 µM
TGI [7]: > 100 µM
TGI [8]: > 100 µM

CC(C)OCN1COCN=C1NC#N
TGI [1]: > 100 µM
TGI [2]: > 100 µM
TGI [3]: > 100 µM
TGI [4]: > 100 µM
TGI [9]: 34.2 µM
TGI [10]: > 100 µM
TGI [5]: > 100 µM
TGI [6]: > 100 µM
TGI [8]: > 100 µM

O=C1CCC(=O)c2cc(Br)ccc2N1
TGI [1]: > 100 µM
TGI [2]: > 100 µM
TGI [3]: > 100 µM
TGI [4]: > 100 µM
TGI [9]: > 100 µM
TGI [10]: > 100 µM
TGI [5]: > 100 µM
TGI [6]: > 100 µM
TGI [7]: > 100 µM
TGI [8]: 63.1 µM

COc1ccc(C(=O)C(C(=O)C(=O)Nc2nc3ccc(OC)cc3s2)c2ccc(OC)cc2)cc1 (stereo not given)
TGI [1]: > 100 µM
TGI [2]: > 100 µM
TGI [3]: > 100 µM
TGI [4]: > 100 µM
TGI [9]: > 100 µM
TGI [10]: > 100 µM
TGI [5]: > 100 µM
TGI [6]: > 100 µM
TGI [7]: > 100 µM

CC(NC1CCC[C@H]1O)c1ccccc1 (mixture of isomers)
TGI [2]: > 100 µM
TGI [3]: > 100 µM
TGI [4]: > 100 µM
TGI [9]: > 100 µM
TGI [10]: > 100 µM
TGI [5]: > 100 µM
TGI [6]: > 100 µM
TGI [7]: > 100 µM

C=C(C)C1CC[C@]2(C(=O)O)CCC3(C)[C@H](CCC4[C@@]5(C)CC[C@H](OC6OC(CO)C(O)C6OC6OC(C)C(O)C(O)C6O)[C@@](C)(CO)C5CC[C@]43C)C12 (stereo not given in full)
TGI [2]: > 100 µM
TGI [3]: > 100 µM
TGI [4]: > 100 µM
TGI [9]: > 100 µM
TGI [10]: > 100 µM
TGI [6]: > 100 µM
TGI [7]: > 100 µM
TGI [8]: > 100 µM

COC(=O)C1CCc2c(OC)ccc(OC)c2C1=O (stereo not given)
TGI [1]: > 100 µM
TGI [2]: > 100 µM
TGI [3]: > 100 µM
TGI [4]: > 100 µM
TGI [10]: > 100 µM
TGI [5]: > 100 µM
TGI [6]: > 100 µM
TGI [7]: > 100 µM

COc1cc(C2C(C(=O)O)=C(C)Oc3cc4c(cc32)OCO4)cc(OC)c1OC (stereo not given)
TGI [1]: > 100 µM
TGI [2]: 50.6 µM
TGI [3]: > 100 µM
TGI [9]: > 100 µM
TGI [10]: > 100 µM
TGI [5]: > 100 µM
TGI [7]: > 100 µM

CC(=O)Nc1ccc(/C=c2\sc3nnc(/C=C/c4ccccc4)n3c2=O)cc1
TGI [1]: > 50 µM
TGI [2]: > 50 µM
TGI [3]: > 50 µM
TGI [4]: > 50 µM
TGI [10]: > 50 µM
TGI [5]: > 50 µM
TGI [6]: > 50 µM
TGI [7]: > 50 µM

COCCN1C2=CCCCC2=Nc2c(N)nc(N)nc21
TGI [1]: > 100 µM
TGI [2]: > 100 µM
TGI [3]: > 100 µM
TGI [4]: > 100 µM
TGI [9]: > 100 µM
TGI [10]: > 100 µM
TGI [5]: > 100 µM
TGI [6]: > 100 µM
TGI [7]: > 100 µM
TGI [8]: > 100 µM
